Columns and labels:
[1] = system: airway hyper-responsiveness induced by ozone; test: Airway hyper-responsiveness model induced by inhalation of ozone in guinea pigs (lung resistance after methacholine); type: in vivo; settings: test substance 30 mg/kg one hour before ozone inhalation, RLung after methacholine inhalation 5 hours after end of ozone exposure
Experimental: This test was performed so as to evaluate the pharmacological effect of the 7-aminoquinolinone derivatives of the present invention in an airway hyper-responsiveness model induced by inhalation of ozone in guinea pigs. The test procedure will now be described.
Guinea pigs were fasted for 18 hours or more. The animals were administered the test substance (30 mg/kg) and theophylline (100 mg/kg) one hour before ozone inhalation. For the non-stimulation group and the vehicle control group, vehicle (5 mL/kg) was administered similarly.
The animals were put into an acryl-made chamber (29×19×25 cm), subjected to induction of ozone generated by an ozonizer (EUV3-XU; EBARA JITSUGYO CO, LTD.) and exposed for 2 hours. The ozone concentration in the chamber was approximately 3 ppm. It was confirmed every 30 minutes that this concentration was maintained during exposure by an ozone monitor (EG-5000; EBARA JITSUGYO CO, LTD.) (measured value: 2.53 to 3.40 ppm). For the non-stimulation group, the animals were exposed to a mixed gas (oxygen: 95%, carbonic acid gas: 5%) similarly. The ozone concentration at that time was also confirmed similarly (acceptable concentration: 0.01 ppm or less, measured value: 0.00 to 0.01 ppm).
The measurement of airway hyper-responsiveness was performed 5 hours after the end of ozone exposure. The measurement of lung resistance (RLung) was performed according to the method of R. E. Giles et al. in the same manner as in Example 2. That is, the animals were anesthetized with Nembutal (Trade name: 50 mg/kg, i.p., sodium pentobarbital) and subjected to cannulation into esophagus and trachea. The esophagus and trachea cannulas were connected to a respirator (ventilation volume: 6 mL/kg, ventilation frequency: 60 times/min, SN-480-7) and the RLung after inhalation of methacholine (100 μg/mL, for 1.5 minutes) was measured by the respiratory function analyzer (PULMOS-II; M.I.P.S) through a flow sensor (connected to Validyle DF45F (for flow rate) and DP45P (for pressure)). The inhalation of methacholine was performed with an ultrasonic nebuliser (NE-U17; Omron Matsuzaka) connected to the respirator under artificial respiration.
Used RLung represents 10 breaths having a stable value in a range from 1 to 30 breaths after initiation of each measurement for both before inhalation and during methacholine inhalation. The average of the RLung was calculated. The extreme values in RLung that occurred when animal moved during the measurement were excluded from the calculations.
The percentage of increase of RLung was calculated by the following equation. Increase in lung resistance (%)=([RLung after inhalation of methacholine]−[RLung before administration])/[RLung before administration]×100

[2] = Peroxynitrite scavenging activity (oxidation of dihydrorhodamine 123); type: biochemical; settings: oxidation of dihydrorhodamine 123 by peroxynitrite, phosphate buffer pH 7.4; read-out: 50% Inhibitory concentration on oxidation (IC50)
Experimental: This test was performed by estimating the antioxidative effect of the test substance using peroxynitrite quantitative method as a test system with dihydrorhodamine 123 so as to confirm the ability of the 7-aminoquinolinone derivatives of the present invention to scavenge peroxynitrite. This is a method described in NITRIC OXIDE: Biology and Chemistry Vol. 1, 145-157, 1997.
The test substance was weighted in an amount of approximately 10 mg, dissolved in a 10% Tween 80 solution and adjusted to 5×10^−3 mol/L. Then, the solution was diluted with 0.1 mol/L phosphate buffer (pH=7.4) to 5×10^−4 mol/L. The diluent was further diluted stepwise with a phosphate buffer containing 1% Tween 80 to obtain substance solution. The preparation was conducted before use. The final concentration of the test substance was adjusted to 3×10^−6, 1×10^−6, 3×10^−7, 1×10^−7, and 3×10^−8 mol/L, respectively.
To 20 μL of peroxynitrite solution (manufactured by DOJINDO LABORATORIES), 1980 μL of 0.1 mol/L sodium hydroxide was added and the mixture was diluted 100 times. The absorbance of the maximum absorption wavelength near 300 nm was measured using a UV-visible spectrophotometer and the concentration was calculated according to the following equation. Concentration(mmol/L)=(absorbance/1670)×100×1000
Based on the concentration calculated in the above section, dilution with a 0.1 mol/L sodium hydroxide solution was conducted and adjusted to 10 mmol/L. 990 μL of a 0.1 mol/L sodium hydroxide solution was taken into a 1.5 mL-Eppen tube. To the Eppen tube, 10 μL of a solution adjusted to 10 mmol/L was added to prepare a 100 μmol/L solution.
Dihydrorhodamine 123 was dissolved into 1.155 mL of dimethylsulfoxide, and adjusted to the concentration of 25 mmol/L. This solution was dispensed into 20 μL aliquots and then the aliquots were stored in a biomedical freezer (about −20° C.) and used as a stock solution.
To 490 μL of 0.02% Tween 80 containing 0.1 mol/L phosphate buffer, 10 μL of 25 mmol/L of a thawed dihydrorhodamine 123 stock solution was added to make 500 μmol/L. The prepared solution was diluted with 0.1 mol/L phosphate buffer (pH=7.4) 1000 times to prepare 500 nmol/L of a dihydrorhodamine 123 solution.
(1) To a 3.5 mL brown vial containing a stirring bar, 1470 μL of a 500 nmol/L dihydrorhodamine 123 solution and then 15 μL of the test substance solution was added. For the blank and control groups, 15 μL of 0.1 mol/L phosphate buffer containing 1% Tween 80, as a solvent for the test substance solution, was added. After the addition, the mixture was stirred with a stirrer for 30 minutes.
15 μL of a 100 μmol/L peroxynitrite solution was added while stirring. For the blank group, 15 μL of a 0.1 mol/L sodium hydroxide solution was added. After stirring for 15 minutes, fluorescence intensity was measured.
Fluorescence intensity of the reaction solution was measured using a spectrophotofluorometer under the following measuring conditions: excitation wavelength, 500 nm; emission wavelength, 536 nm; measuring times, one; response, 1 sec; photomultiplier tube voltage, Low; band width at excitation side, 10 nm; bandwidth at emission side, 10 nm.
The oxidation rate of dihydrorhodamine 123 when adding the test substance was calculated, taking the oxidation rate of dihydrorhodamine 123 for control as 100, according to the following equation: Oxidation rate (%) of dihydrorhodamine 123=(measured value for each group−measured value for blank)/(measured for control−measured value for blank)×100 Calculation of Oxidation Inhibition Concentration (IC50)
50% oxidation concentration, that is 50% oxidation inhibition concentration (IC50) was calculated by giving a straight line from two points surrounding 50% oxidation rate.

[3] = system: airway hyper-responsiveness induced by peroxynitrite; test: Airway hyper-responsiveness model induced by exposure of peroxynitrite in guinea pigs (lung resistance after histamine); type: in vivo; settings: 30 mg/kg orally one hour before peroxynitrite, histamine 32 μg/kg i.v. on 5-day, control group 759, non-stimulation group 382
Experimental: This test was performed so as to investigate the pharmacological effect of the 7-aminoquinolinone derivative of the present invention on an airway hyper-responsiveness model induced by exposure of peroxynitrite in guinea pigs. The test procedure will now be described.
Guinea pigs were fasted for 18 hours or more. The animals were administrated the test substance (30 mg/kg) orally one hour before exposure of peroxynitrite and the neck was dissected under ether anesthesia, and then the trachea was exposed. 0.1 mL of 1 mmol/L peroxynitrite was administered intratracheally into pulmonary side by pushing with air and, after the administration, the incision was sutured and disinfected.
The measurement of airway hyper-responsiveness was performed on 5-day, taking the day of model preparation 0-day. Guinea pigs were fasted for 18 hours or more. The measurement of lung resistance; (RLung) was performed according to the method of R. E. Giles et al. (R. E. Giles, M. P. Finkel and J. Mazurowski: Use of an Analog On-Line Computer for the Evaluation of Pulmonary Resistance and Dynamic Compliance in the Anesthetized Dog. Arch. Int. Pharmacodyn. 194, 213-222 (1971)). That is, the animals were anesthetized with Nembutal (Trade name: 40 mg/kg, i.v., sodium pentobarbital) and subjected to cannulation into esophagus, trachea and jugular veins (for administration of histamine). The esophagus and trachea cannulas were connected to an artificial respirator (ventilation volume: 6 mL/kg, ventilation frequency: 60 times/min, SN-480-7) and the Rlung was measured after intravenous administration (dose of 0.1 mL/kg) of physiological saline solution and histamine (32 μg/kg) using a total plethysmograph system via flow sensor, connected to Validyne DF45F (for flow rate) and DP45P (for pressure). RLung before administration was determined by averaging values of any 3 out of 20 breaths, RLung after administration of physiological saline solution was determined by averaging values of any 3 out of 5 breaths, and RLung after administration of histamine was determined by averaging values of the following 3 breaths; 1) showing the maximum lung resistance, 2) taken just before and 3) taken just after the one with the maximum lung resistance, out less than 20 breaths. (The extreme values in RLung that occurred when animal moved during the measurement were excluded from the calculations.)
The percentage of increase in lung resistance was calculated by the following equation. Increase in lung resistance (%)=([RLung after administration of histamine]−[RLung before administration])/[RLung before administration]×100

IC50 [2]	SMILES	Increase in lung resistance (%) [1]	Increase in lung resistance (%) [3]
790 nM	CCCCCCOc1c(O)c2ccc(N)cc2n(CCCCCC)c1=O [Compound 147]	29%	429%
850 nM	CCCCCCCCn1c(=O)c(OC)c(O)c2ccc(NCC)cc21 [Compound 359]	31%	431%
800 nM	CCCCn1c(=O)c(O)c(OC)c2ccc(N(C)C)cc21 [Compound 309]	34%	435%
910 nM	COc1c(O)c2ccc(NC(=O)c3ccccc3)cc2n(C)c1=O [Compound 514]	31%	434%
830 nM	CCCCCCCCOc1c(O)c2ccc(NC(=O)c3ccccc3)cc2n(C)c1=O [Compound 519]	26%	440%
940 nM	CCCCCCCCOc1c(O)c2ccc(NC(C)=O)cc2n(C)c1=O [Compound 396]	22%	421%
